PMC5736207 (PLoS ONE, 2017)

Key:
[1] = target: T1, PMM1 (phosphomannomutase1) (Homo sapiens, UniProt Q92871); assay: coupled NADPH assays of phosphoglucomutase and Glc-1,6-P2 phosphatase activity; format: biochemical; settings: PGM: 40 μM Glc-1-P, 27 μM Glc-1,6-P2, phosphatase: 0.145 mM Glc-1,6-P2
T1 construct: recombinant, E. coli BL21(DE3), purified as in earlier work (DEAE, butyl Sepharose); dimer; no tag mentioned
T1 sequence (Q92871 2-262): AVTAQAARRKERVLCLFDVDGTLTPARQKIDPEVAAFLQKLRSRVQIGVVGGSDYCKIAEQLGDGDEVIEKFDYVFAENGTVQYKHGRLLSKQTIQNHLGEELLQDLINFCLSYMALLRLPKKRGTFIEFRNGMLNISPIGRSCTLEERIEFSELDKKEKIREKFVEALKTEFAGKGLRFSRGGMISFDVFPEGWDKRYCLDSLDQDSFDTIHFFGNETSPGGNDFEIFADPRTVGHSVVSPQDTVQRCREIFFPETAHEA

[2] = target: T1, PMM1 (phosphomannomutase1); assay: thermal shift assay, Sypro Orange; format: binding; settings: 0-1 mM Glc-1,6-P2; MgCl2 1 mM, pH 7.5
[3] = target: T2, PMM2 (phosphomannomutase2) (Homo sapiens, UniProt O15305); assay: thermal shift assay, Sypro Orange; format: binding; settings: 0-1 mM Glc-1,6-P2; MgCl2 1 mM, pH 7.5
T2 construct: recombinant, E. coli BL21(DE3), purified as in earlier work; no tag mentioned
T2 sequence (O15305 2-246): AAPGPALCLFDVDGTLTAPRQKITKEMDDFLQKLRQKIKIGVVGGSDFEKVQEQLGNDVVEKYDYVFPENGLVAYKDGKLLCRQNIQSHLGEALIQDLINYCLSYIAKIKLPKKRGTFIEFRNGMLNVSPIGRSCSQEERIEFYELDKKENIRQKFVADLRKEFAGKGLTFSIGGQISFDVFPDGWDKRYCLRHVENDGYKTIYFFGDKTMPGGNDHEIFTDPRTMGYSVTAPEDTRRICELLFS

[4] = target: T2, PMM2 (phosphomannomutase2); assay: coupled NADPH assay of phosphoglucomutase activity; format: biochemical; settings: 27 μM Glc-1,6-P2; MgCl2 5 mM, pH 7.5, 32°C

For `O=P(O)(O)C(Cl)(Cl)P(=O)(O)O` [clodronate, (Dichloro-phosphono-methyl)phosphonic acid], the “activity at 2.8 mM clodronate” value [1] was “clodronate as a novel specific inhibitor of PMM1 that decreases both PGM and Glc-1,6-P2-ase activities”.
In the case of `O=P(O)(O)OC[C@H]1O[C@H](OP(=O)(O)O)[C@H](O)[C@@H](O)[C@@H]1O` [Glc-1,6-P2], the Tm [2] is reported as “effect of Glc-1,6-P2 on the melting temperature of PMM1 is seen only at very high concentrations” and the Tm [3] is reported as “The bis-phosphate hexose binds PMM2”.
In the case of `O=P(O)(O)O[C@H]1O[C@H](CO)[C@@H](O)[C@H](O)[C@H]1O` [Glc-1-P], the Km [4] is reported as 8.2 ± 0.7 µM.
